17 molecules from PubChem BioAssay AID248 (DTP/NCI, 2004) can be followed below.

Each structure is given as a SMILES string. “And” between values parts separate entries of the source, which are not always exact repeats. Identical values can stand only once. Toxic doses and inconclusive results are not listed.

The experiment has as its system L1210 leukemia ip in BDF1 mice, survival T/C. Nature of the experiment: NCI In Vivo Anticancer Drug Screen. Data for tumor model L1210 Leukemia (intraperitoneal) in B6D2F1 (BDF1) mice. Conditions: endpoint: mean survival time, higher = longer survival. The method in brief: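 Survival endpoint. Drug-treated group vs vehicle group, expressed as T divided by C. Tumor passaged by transplantation.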

[1] abbreviates: dose: 50.0 mg/kg/injection, schedule: Q04DX003 (ip), vehicle: saline.
Setting [2] is: dose: 100.0 mg/kg/injection, schedule: Q04DX003 (ip), vehicle: Klucel (hydroxypropylcellulose) (HPC).
[3] abbreviates: dose: 200.0 mg/kg/injection, schedule: Q04DX003 (ip), vehicle: Klucel (hydroxypropylcellulose) (HPC).
[4] abbreviates: dose: 100.0 mg/kg/injection, schedule: Q01DX009 (ip), vehicle: Klucel (hydroxypropylcellulose) (HPC).
[5] abbreviates: dose: 100.0 mg/kg/injection, schedule: Q01DX009 (ip), vehicle: saline with Tween-80.
Setting [6] is: dose: 100.0 mg/kg/injection, schedule: Q04DX003 (ip), vehicle: saline with Tween-80.
Setting [7] is: dose: 200.0 mg/kg/injection, schedule: Q01DX009 (ip), vehicle: Klucel (hydroxypropylcellulose) (HPC).
Where [8] appears, read: dose: 200.0 mg/kg/injection, schedule: Q01DX009 (ip), vehicle: saline with Tween-80.
The mark [9] stands for this setting: dose: 200.0 mg/kg/injection, schedule: Q04DX003 (ip), vehicle: saline with Tween-80.
Setting [10] is: dose: 400.0 mg/kg/injection, schedule: Q01DX009 (ip), vehicle: Klucel (hydroxypropylcellulose) (HPC).
The mark [11] stands for this setting: dose: 400.0 mg/kg/injection, schedule: Q01DX009 (ip), vehicle: saline with Tween-80.
Setting [12] is: dose: 400.0 mg/kg/injection, schedule: Q04DX003 (ip), vehicle: Klucel (hydroxypropylcellulose) (HPC).
[13] abbreviates: dose: 400.0 mg/kg/injection, schedule: Q04DX003 (ip), vehicle: saline with Tween-80.
Setting [14] is: dose: 100.0 mg/kg/injection, schedule: Q01DX001 (ip), vehicle: Klucel (hydroxypropylcellulose) (HPC).
The mark [15] stands for this setting: dose: 200.0 mg/kg/injection, schedule: Q01DX001 (ip), vehicle: Klucel (hydroxypropylcellulose) (HPC).
[16] abbreviates: dose: 100.0 mg/kg/injection, schedule: Q04DX003 (ip), vehicle: saline.
Where [17] appears, read: dose: 200.0 mg/kg/injection, schedule: Q04DX003 (ip), vehicle: saline.
Where [18] appears, read: dose: 400.0 mg/kg/injection, schedule: Q04DX003 (ip), vehicle: saline.
Setting [19] is: dose: 100.0 mg/kg/injection, schedule: Q04DX002 (ip), vehicle: saline with Tween-80.

With `O=NNc1ccccn1`, the T/C (dose: 6.25 mg/kg/injection, schedule: Q04DX003 (ip), vehicle: saline) was 111 % of control; the T/C (dose: 8.0 mg/kg/injection, schedule: Q01DX009 (ip), vehicle: saline) is 116 % of control; the T/C (dose: 8.0 mg/kg/injection, schedule: Q04DX003 (ip), vehicle: saline) was 121 % of control and 123 % of control; the T/C (dose: 12.0 mg/kg/injection, schedule: Q01DX009 (ip), vehicle: saline) was 106 % of control; the T/C (dose: 12.0 mg/kg/injection, schedule: Q04DX003 (ip), vehicle: saline) was 156 % of control; the T/C (dose: 18.0 mg/kg/injection, schedule: Q01DX009 (ip), vehicle: saline) is 119 % of control. The T/C under setting [1] is 114 % of control.

In the case of `Cc1cnc2no[n+]([O-])c2c1`, the T/C reads like this: under setting [2], 101 % of control; under setting [3], 102 % of control.

Regarding `CCCCCCCCc1cc2c(c3c1CCCC3)CCC1CCCCC21` (stereo unspecified), the T/C reads like this: (dose: 100.0 mg/kg/injection, schedule: Q01DX001 (ip), vehicle: saline) 104 % of control; (dose: 200.0 mg/kg/injection, schedule: Q01DX001 (ip), vehicle: saline) 98 % of control; (dose: 400.0 mg/kg/injection, schedule: Q01DX001 (ip), vehicle: saline) 101 % of control.

As to `CCCCC(O)CCC` (stereo unspecified), the T/C was 96 % of control under setting [4]; 98 % of control under setting [5]; 98 % of control under setting [2]; 100 % of control under setting [6]; 107 % of control under setting [7]; 95 % of control under setting [8]. The T/C by setting is: under setting [3], 93 % of control; under setting [9], 98 % of control; under setting [10], 95 % of control; under setting [11], 91 % of control; under setting [12], 93 % of control; under setting [13], 98 % of control.

Turning to `C=C(Br)CN(CC)CC`, the T/C is, setting by setting: (dose: 12.5 mg/kg/injection, schedule: Q01DX009 (ip), vehicle: Klucel (hydroxypropylcellulose) (HPC)) 90 % of control; (dose: 12.5 mg/kg/injection, schedule: Q04DX003 (ip), vehicle: Klucel (hydroxypropylcellulose) (HPC)) 100 % of control; (dose: 25.0 mg/kg/injection, schedule: Q01DX009 (ip), vehicle: Klucel (hydroxypropylcellulose) (HPC)) 91 % of control; (dose: 25.0 mg/kg/injection, schedule: Q04DX003 (ip), vehicle: Klucel (hydroxypropylcellulose) (HPC)) 107 % of control; (dose: 50.0 mg/kg/injection, schedule: Q04DX003 (ip), vehicle: Klucel (hydroxypropylcellulose) (HPC)) 96 % of control.

In the case of `O=C(N/N=C/c1ccncc1)c1ccccc1`, the T/C is, setting by setting: (dose: 100.0 mg/kg/injection, schedule: Q01DX009 (ip), vehicle: saline) 112 % of control; (dose: 200.0 mg/kg/injection, schedule: Q01DX009 (ip), vehicle: saline) 112 % of control.

Consider `COC(=O)C(C(=O)Oc1ccc([N+](=O)[O-])cc1)c1ccccc1` (stereo unspecified), for which the T/C reads like this: under setting [14], 97 % of control; under setting [2], 101 % of control; under setting [15], 97 % of control; under setting [7], 102 % of control; under setting [3], 103 % of control; (dose: 400.0 mg/kg/injection, schedule: Q01DX001 (ip), vehicle: Klucel (hydroxypropylcellulose) (HPC)) 100 % of control. Also, the T/C runs as follows: under setting [10], 109 % of control; under setting [12], 101 % of control.

`O=C1CC2CCCCC2O1` (stereo unspecified): the T/C by setting is: (dose: 50.0 mg/kg/injection, schedule: Q01DX009 (ip), vehicle: saline with Tween-80) 96 % of control; (dose: 75.0 mg/kg/injection, schedule: Q01DX001 (ip), vehicle: other) 103 % of control; under setting [5], 88 % of control; (dose: 150.0 mg/kg/injection, schedule: Q01DX001 (ip), vehicle: other) 97 % of control and 115 % of control.

Regarding `Cc1ccc(C(C)C)c(O)c1C(=O)O`, the T/C by setting is: under setting [14], 96 % of control; under setting [15], 104 % of control.

For the molecule `NC1(C(=O)O)Cc2ccccc2C1`, the T/C is, setting by setting: (dose: 50.0 mg/kg/injection, schedule: Q01DX001 (ip), vehicle: olive oil, sesame oil, peanut oil) 101 % of control; (dose: 100.0 mg/kg/injection, schedule: Q01DX001 (ip), vehicle: olive oil, sesame oil, peanut oil) 101 % of control; (dose: 200.0 mg/kg/injection, schedule: Q01DX001 (ip), vehicle: olive oil, sesame oil, peanut oil) 112 % of control; (dose: 400.0 mg/kg/injection, schedule: Q01DX001 (ip), vehicle: olive oil, sesame oil, peanut oil) 104 % of control.

In the case of `c1ccc2c(Nc3ccc(C4=NCCN4)cc3)nnc(Nc3ccc(C4=NCCN4)cc3)c2c1`, the T/C by setting is: (dose: 38.0 mg/kg/injection, schedule: Q01DX Z (ip), vehicle: carboxymethylcellulose (CMC)) 110 % of control; (dose: 62.5 mg/kg/injection, schedule: Q01DX Z (oral), vehicle: saline) 103 % of control; (dose: 63.0 mg/kg/injection, schedule: Q01DX Z (oral), vehicle: water) 95 % of control; (dose: 84.0 mg/kg/injection, schedule: Q01DX Z (ip), vehicle: carboxymethylcellulose (CMC)) 170 % of control; (dose: 125.0 mg/kg/injection, schedule: Q01DX Z (oral), vehicle: saline) 103 % of control; (dose: 125.0 mg/kg/injection, schedule: Q01DX Z (oral), vehicle: water) 87 % of control. For the same molecule, the T/C was 119 % of control (dose: 187.5 mg/kg/injection, schedule: Q01DX Z (ip), vehicle: carboxymethylcellulose (CMC)); 105 % of control (dose: 250.0 mg/kg/injection, schedule: Q01DX Z (oral), vehicle: saline); 87 % of control (dose: 500.0 mg/kg/injection, schedule: Q01DX Z (oral), vehicle: water).

Turning to `COc1ccc2cc[n+](C)cc2c1`, the T/C is 101 % of control (dose: 12.5 mg/kg/injection, schedule: Q01DX009 (ip), vehicle: saline); 110 % of control (dose: 25.0 mg/kg/injection, schedule: Q01DX009 (ip), vehicle: saline); 100 % of control (dose: 25.0 mg/kg/injection, schedule: Q04DX003 (ip), vehicle: saline); 110 % of control (dose: 50.0 mg/kg/injection, schedule: Q01DX009 (ip), vehicle: saline); 96 % of control under setting [1].

Take `Cc1ccc(NS(=O)(=O)c2ccccc2)cc1`: the T/C runs as follows: under setting [5], 106 % of control; under setting [6], 104 % of control; under setting [16], 93 % of control; under setting [8], 101 % of control; under setting [9], 100 % of control; under setting [17], 101 % of control. The T/C is, setting by setting: under setting [11], 103 % of control; under setting [13], 104 % of control; under setting [18], 106 % of control.

For the molecule `Cc1onc(-c2ccccc2Cl)c1C(=O)NCC(=O)O`, the T/C under setting [19] was 104 % of control; the T/C (dose: 200.0 mg/kg/injection, schedule: Q04DX002 (ip), vehicle: saline with Tween-80) was 100 % of control; the T/C (dose: 400.0 mg/kg/injection, schedule: Q04DX002 (ip), vehicle: saline with Tween-80) was 100 % of control.

For the molecule `CC(=O)c1ccc(N=C(N)N=C(N)N)cc1`, the T/C runs as follows: (dose: 75.0 mg/kg/injection, schedule: Q01DX001 (ip), vehicle: carboxymethylcellulose (CMC)) 110 % of control; (dose: 150.0 mg/kg/injection, schedule: Q01DX001 (ip), vehicle: carboxymethylcellulose (CMC)) 93 % of control.

Turning to `COc1ccc(NC(=O)Nc2cccc([N+](=O)[O-])c2OC)cc1`, the T/C is, setting by setting: (dose: 25.0 mg/kg/injection, schedule: Q04DX002 (ip), vehicle: saline with Tween-80) 93 % of control; (dose: 50.0 mg/kg/injection, schedule: Q04DX002 (ip), vehicle: saline with Tween-80) 96 % of control; under setting [19], 89 % of control.

`c1ccc(N=Nc2ccc(C3=NCCO3)cc2)cc1`: the T/C is, setting by setting: under setting [4], 91 % of control; under setting [16], 95 % of control; under setting [7], 88 % of control; under setting [17], 101 % of control; under setting [10], 87 % of control; under setting [18], 94 % of control.
